# In US20120129949A1, “Use of Anthracene Derivatives as Anti-Infectives” (SEALIFE PHARMA GMBH, priority 2009, published 2012):
# Like-named read-outs stand apart in the source and are kept apart here.
# What was measured:
# bacteria and fungi = settings: Aly et al., Phytochemistry 69, 1716-1725; cited from earlier work
# [1] = test system: Aspergillus fumigatus or faecalis; assay: MIC test (antifungal), Aspergillus; type: cell-based; settings: multi-resistant strain; averages of multiple test runs; log2 dilutions from 250 μg/ml
# Protocol: (§1) The activities of the compounds were tested in two different screening systems. The antibacterial and antifungal activities were examined by means of an MIC test, MIC standing for “minimal inhibitory concentration” and referring to the lowest concentration of a substance at which no proliferation of microorganisms can be observed with the naked eye. The MIC is determined by means of a so called titration method in which the substance is diluted and, subsequently, the pathogen is added to it.
# (§2) Usually, this method is applied in order to determine the concentration of an antibiotic which only just inhibits the growth of a bacterial strain. The MIC is indicated in micrograms per milliliter (μg/ml), and the dilutions are conventionally carried out in log2 steps. Herein, a starting concentration of 250 μg/ml was diluted several times, to the double volume in each case, resulting in test concentrations of 250 μg/ml, 125 μg/ml, 62.5 μg/ml, 31.2 μg/ml, 15.6 μg/ml, 7.8 μg/ml, etc. Thus, lower values indicate a better activity as an anti-infective.
# (§3) The tests were carried out according to the standards of EUCAST (European Committee for Antimicrobial Susceptibility Testing) and according to the AFST-protocol (“Antifungal Susceptibility Testing” protocol) of the European Society of Clinical Microbiology and Infectious Diseases (ESCMID).
# (§4) In the following Table 3, the test results indicating the anti-infective action of altersolanol M, alterporriol I and J as well as of some known and structurally similar comparative substances against some multi-resistant bacteria and fungi (all of which were kindly placed at our disposal by Prof Georgopulos from the Medical University of Vienna). The data constituting averages of the values obtained in multiple test runs.
# Staphylococcus epidermis = assay: MIC test, multi-resistant Staphylococcus epidermis; type: cell-based; settings: for MIC: Staphylococcus, read-out: MHK values SE (Staphylococcus epidermis)
# Protocol: as §1, §2, §3, §4
# Streptococcus pneumoniae = assay: MIC test, multi-resistant Streptococcus pneumoniae; type: cell-based; settings: for MHK values STR (Streptococcus pneumoniae): multi-resistant strain, averages of multiple test runs, log2 dilutions from 250 μg/ml
# Protocol: as §1, §2, §3, §4
# [2] = test system: Enterococcus faecalis or faecium; assay: MIC test, multi-resistant Enterococcus; type: cell-based; settings: multi-resistant strain; averages of multiple test runs; log2 dilutions from 250 μg/ml
# Protocol: as §1, §2, §3, §4
# [3] = test system: Staphylococcus aureus or methicillin-resistant Staphylococcus aureus; settings: Xu et al. 2008; Sommart et al. 2008; cited from earlier work
# [4] = test system: methicillin-resistant Staphylococcus aureus; assay: MIC test, MRSA; type: cell-based; settings: for MIC: Staphylococcus aureus, MRSA, read-out: MHK values MRSA (methicillin-resistant Staphylococcus aureus)
# Protocol: as §1, §2, §3, §4
# E. coli = assay: MIC test, multi-resistant E. coli; type: cell-based; settings: multi-resistant strain; averages of multiple test runs; log2 dilutions from 250 μg/ml
# Protocol: as §1, §2, §3, §4
# Acinetobacter baumanii = assay: MIC test, multi-resistant Acinetobacter baumanii; type: cell-based; settings: multi-resistant strain; averages of multiple test runs; log2 dilutions from 250 μg/ml
# Protocol: as §1, §2, §3, §4
# [5] = Yagi et al., Phytochemistry 34(4), 1005-1009 (1993); cited from earlier work
# Klebsiella sp. = assay: MIC test, multi-resistant Klebsiella sp.; type: cell-based; settings: multi-resistant strain; averages of multiple test runs; log2 dilutions from 250 μg/ml
# Protocol: as §1, §2
# (§5) The tests were carried out according to the standards of EUCAST (European Committee for Antimicrobial Susceptibility Testing) and according to the AFST-protocol (“Antifungal Susceptibility Testing” protocol) of the European Society of Clinical Microbiology and Infectious Diseases (ESCMID). […]
# Pseudomonas aeruginosa = assay: MIC test, multi-resistant Pseudomonas aeruginosa; type: cell-based; settings: multi-resistant strain; averages of multiple test runs; log2 dilutions from 250 μg/ml
# Protocol: as §1, §2, §5
# [6] = multi-resistant strain, averages of multiple test runs, log2 dilutions from 250 μg/ml
# [7] = verbal summary of the MIC test series
Compound,MHK values ASP (Aspergillus fumigatus or faecalis) [1] [µg/mL],MIC (Staphylococcus epidermis; [6]) [µg/mL],MHK values STR (Streptococcus pneumoniae) (Streptococcus pneumoniae) [µg/mL],MHK values EK (Enterococcus faecalis or faecium) [2] [µg/mL],MHK values AB (Acinetobacter baumanii) (Acinetobacter baumanii) [µg/mL],further results
COc1cc(O)c2c(c1)[C@H](O)[C@@H]1[C@@H](C2=O)[C@H](O)[C@@H](O)[C@@](C)(O)[C@@H]1O [Ampelanol],–,–,–,–,–,activity against bacteria and fungi (bacteria and fungi): do not show any activity
"COc1cc(O)c2c(c1O)[C@H](O)[C@H]1C[C@](C)(O)[C@H](O)C[C@@H]1C2=O [Example 5, (2R,3S,4aS,9aS,10R)-2,3,5,8,10-penta-hydroxy-6-methoxy-3-methyl-1,2,3,4,4a,9a-hexahydro-9H,10H-anthracen-9-one]",31.2,15.6,7.8,125,–,"activity against Streptococcus pneumoniae, in words (Streptococcus pneumoniae; [7]): excellent effectiveness; effectiveness against Staphylococcus aureus or methicillin-resistant Staphylococcus aureus [3]: slight effectiveness; MIC [4, 6]: 15.6 µg/mL; activity against methicillin-resistant Staphylococcus aureus, in words [4, 7]: very good activity"
COc1cc(O)c2c(c1)C(=O)c1cc(C)c(O)cc1C2=O [Macrosporin],–,62.5,–,–,125,"MHK values EC (E. coli) (E. coli): 62.5 µg/mL; MIC [4, 6]: 62.5 µg/mL"
altersolanol D,–,–,–,–,–,anti-microbial activity [5]: completely ineffective
altersolanol F,–,–,–,–,–,anti-microbial activity [5]: completely ineffective
COc1cc(O)c(C(=O)O)c(-c2cc(O)c(O)cc2C)c1 [Altenusin],–,–,31.2,62.5,62.5,MHK values EC (E. coli) (E. coli): 62.5 µg/mL; MIC (Staphylococcus epidermis): 31.2 µg/mL; MIC [4]: 31.2 µg/mL
Alterporriol A + B,62.5,–,7.8,15.6,125,"MHK values SE (Staphylococcus epidermis) (Staphylococcus epidermis; [6]): 15.6 µg/mL; MHK values MRSA (methicillin-resistant Staphylococcus aureus) [4, 6]: 15.6 µg/mL"
COc1cc(O)c2c(c1)C(=O)C1=C(C[C@@H](O)[C@@](C)(O)C1)C2=O [altersolanol B],–,–,–,–,–,anti-microbial activity [5]: anti-microbial activity
COc1cc(O)c2c(c1)C(=O)C1=C(C[C@@H](O)[C@@](C)(O)[C@@H]1O)C2=O [altersolanol C],–,–,–,–,–,anti-microbial activity [5]: anti-microbial activity
Macrosporin sulfate,–,–,31.2,–,125,–
alterporriols D and E,–,–,–,–,–,activity against bacteria and fungi (bacteria and fungi): do not show any activity
"COc1cc(O)c2c(c1)[C@H](O)[C@@H]1[C@H](C[C@@H](O)[C@@](C)(O)[C@@H]1O)C2=O [Example 3, (2R,3R,4R,4aS,9aS,10R)-2,3,4,8,10-pentahydroxy-6-methoxy-3-methyl-1,2,3,4,4a,9a-hexahydro-9H,10H-anthracen-9-one]",31.2,7.8,7.8,7.8,7.8,"MIC [4, 6]: 7.8 µg/mL"
COc1cc(O)c2c(c1)C(=O)[C@H]1C[C@](C)(O)[C@H](O)C[C@@H]1[C@H]2O [Altersolanol J],125,–,15.6,31.2,125,"MHK values SE (Staphylococcus epidermis) (Staphylococcus epidermis; [6]): 62.5 µg/mL; activity against bacteria and fungi (bacteria and fungi): do not show any activity; MHK values MRSA (methicillin-resistant Staphylococcus aureus) [4, 6]: 62.5 µg/mL; MHK values KL (Klebsiella sp.) (Klebsiella sp.): 125 µg/mL"
Indole carbaldehyde (carboxaldehyde),–,–,62.5,–,125,MHK values PS (Pseudomonas aeruginosa) (Pseudomonas aeruginosa): 125 µg/mL
"COc1cc(O)c2c(c1)C(=O)C1=C(C2=O)[C@H](O)[C@@H](O)[C@@](C)(O)[C@@H]1O [Altersolanol A, 7-methoxy-2-methyl-(1R,2S,3R,4S)-1,2,3,4-tetrahydro-1,2,3,4,5-pentahydroxy-anthracene-9,10-dione]",7.8,7.8,7.8,15.6,62.5,MHK values EC (E. coli) (E. coli): 62.5 µg/mL; anti-microbial activity [5]: anti-microbial activity; activity against bacteria and fungi (bacteria and fungi): most efficient of the tested substances; MIC [4]: 7.8 µg/mL
"COc1cc2c(c(O)c1-c1c(OC)cc(O)c3c1C(=O)C1=C(C3=O)[C@H](O)[C@@H](O)[C@@](C)(O)[C@H]1O)C(=O)c1cc(O)c(C)cc1C2=O [Example 4, 8-(1,7-dihydroxy-6-methyl-3-methoxy-9,10-dioxo-9H,10H-anthracen-2-yl)-(1S,2S,3R,4S)-1,2,3,4,5-pentahydroxy-7-methoxy-2-methyl-1,2,3,4-tetrahydro-9H,10H-anthracen-9,10-dione]",125,7.8,7.8,7.8,–,MIC [4]: 7.8 µg/mL
COC1=CC(=O)c2c(O)c3c(c(O)c2C1=O)C[C@](C)(O)[C@H](O)[C@H]3O [Bostrycin],–,125,62.5,–,125,"MIC [4, 6]: 125 µg/mL"
"COc1cc(O)c2c(c1)C(=O)[C@@H]1[C@H](C[C@@H](O)[C@@](C)(O)[C@@H]1O)[C@H]2O [Example 2, (1R,2R,3R,4aS,9aR,10R)-1,2,3,5,10-pentahydroxy-7-methoxy-2-methyl-1,2,3,4,4a,9a-hexahydro-9H,10H-anthracen-9-one]",62.5,31.2,31.2,31.2,–,"MIC [4, 6]: 31.2 µg/mL"
